Experimental findings from patent publication US11724995B2, “Decalin derivatives, a process for the preparation and pharmaceutical composition thereof” (Council of Scientific & Industrial Research, priority 2018, dated 2023) are described below.

This test relates to Sickle cell red blood cells (SS RBCs). The test can be described thus: Flow adhesion assay: sickle cell adhesion inhibition, RBCs perfused over TNF-α activated HUVEC monolayer. The test is classed as cell-based. The settings on record: Homo sapiens; Table 1; SS RBCs treated with test compound at 100 μM, hypoxic condition 2 h; adhesion to TNF-α activated HUVEC monolayer under pulsatile flow; read-out: Inhibition (percentage of inhibition of cell adhesion). The method, then:
In still yet another embodiment, the present disclosure provides Sickle cell adhesion inhibition using Sickle cell red blood cells (SS RBCs). Flow adhesion assay are performed with commercial microfluidic-well plate and microfluidic flow adhesion system. Microfluidic channels are coated by perfusion (1 dyne/cm^2, 5 min) and incubated (37° C., 1 h) with 100 ng/ml Fibronectin. Channels are then perfused with complete media to remove unbound Fibronectin. Then a uniform monolayer of HUVEC cells is formed by profusing micro channels with the cell suspension at a pressure of 3 dyne/cm^2 for 5 sec and kept for 12 hours incubation to form monolayer. The HUVEC monolayer is activated 25 ng/ml of TNF-α and incubated (37° C., 4 h). Meanwhile Sickle cell red blood cell (SS RBCs) are treated with test compound at 100 μM concentration and incubated in hypoxic condition ([…], 5% CO2, 2 h). Flow condition for adhesion assay was pulsatile (1.67 Hz) flow (0.3 dyne/cm^2). For adhesion inhibition assay SS RBCs are diluted (2:50) in PBS. SS RBCs are perfused over HUVEC monolayer and incubated for 1 h. Unbound cells in micro channels are removed by perfusing complete media. Adherent cells are enumerated. Table 1 depicts percentage of inhibition when the compounds are tested at 100 μM concentration.
Flow adhesion assay were performed with commercial microfluidic-well plate and microfluidic flow adhesion system, Bio flux 200. Microfluidic channels were coated by perfusion (1 dyne/cm^2, 5 min) and incubated (37° C., 1 h) with 100 ng/ml Fibronectin. Channels were then perfused with complete media to remove unbound Fibronectin. Then a uniform monolayer of HUVEC cells was formed by profusing micro channels with the cell suspension at a pressure of 3 dyne/cm^2 for 5 sec and kept for 12 hours incubation to form monolayer. The HUVEC monolayer was activated 25 ng/ml of TNF-α and incubated (37° C., 4 h). Meanwhile RBCs were treated with test compound at 100 μM concentration and incubated in hypoxic condition ([…], 5% CO2, 2 h). Flow condition for adhesion assay was pulsatile (1.67 Hz) flow (0.3 dyne/cm^2). For adhesion inhibition assay RBCs were diluted (2:50) in PBS. RBCs were perfused over HUVEC monolayer and incubated for 1 h. Unbound cells in micro channels were removed by perfusing complete media. Adherent cells were enumerated.

As a reminder, the inhibition is the share of the control response that was lost under treatment.

Consider `C[C@@H]1CC(=O)C=C2C[C@@H](O)[C@@H](O)C[C@]21C` [Compound 28, (4R,4aS)-6,7-dihydroxy-4,4a-dimethyl-4,4a,5,6,7,8-hexahydronaphthalen-2(3H)-one], for which the inhibition at 100 µM was found to be 56%.

On to `C[C@@H]1CC=CC2=CC(=O)CC[C@]21C` [Compound 24, (4aS,5R)-4a,5-dimethyl-4,4a,5,6-tetrahydronaphthalen-2(3H)-one], for which the inhibition at 100 µM was 67%.

Take `C[C@@H]1CC(=O)C=C2C=CCC[C@]21C` [Compound 21, (4R,4aS)-4,4a-dimethyl-4,4a,5,6-tetrahydronaphthalen-2(3H)-one]: the inhibition at 100 µM stood at 78%.

In the case of `C[C@@H]1C(=O)C=CC2=CC(=O)CC[C@]21C` [Compound 30, (1S,8aS)-1,8a-dimethyl-1,7,8,8a-tetrahydronaphthalene-2,6-dione], the inhibition at 100 µM turned out to be 72%.

In the case of `C[C@@H]1CC(=O)C=C2C=CC(=O)C[C@]21C` [Compound 29, (8R,8aS)-8,8a-dimethyl-1,7,8,8a-tetrahydronaphthalene-2,6-dione], the inhibition at 100 µM came to 70%.
